Source: ChEMBL document CHEMBL3745711, “Discovery of potent and orally bioavailable inhibitors of Human Uric Acid Transporter 1 (hURAT1) and binding mode prediction using homology model” (Bioorg Med Chem Lett, 2016)
Each block holds one molecule with its values, some of them ahead of it.

Tests used:
[1] = target: T1, Solute carrier family 22 member 12 (Homo sapiens, UniProt Q96S37); experiment: Inhibition of human URAT1 expressed in HEK293 cells assessed as [14C]uric acid uptake after 12 mins by scintillation counter; format: cell-based
T1 sequence (Q96S37 whole entry): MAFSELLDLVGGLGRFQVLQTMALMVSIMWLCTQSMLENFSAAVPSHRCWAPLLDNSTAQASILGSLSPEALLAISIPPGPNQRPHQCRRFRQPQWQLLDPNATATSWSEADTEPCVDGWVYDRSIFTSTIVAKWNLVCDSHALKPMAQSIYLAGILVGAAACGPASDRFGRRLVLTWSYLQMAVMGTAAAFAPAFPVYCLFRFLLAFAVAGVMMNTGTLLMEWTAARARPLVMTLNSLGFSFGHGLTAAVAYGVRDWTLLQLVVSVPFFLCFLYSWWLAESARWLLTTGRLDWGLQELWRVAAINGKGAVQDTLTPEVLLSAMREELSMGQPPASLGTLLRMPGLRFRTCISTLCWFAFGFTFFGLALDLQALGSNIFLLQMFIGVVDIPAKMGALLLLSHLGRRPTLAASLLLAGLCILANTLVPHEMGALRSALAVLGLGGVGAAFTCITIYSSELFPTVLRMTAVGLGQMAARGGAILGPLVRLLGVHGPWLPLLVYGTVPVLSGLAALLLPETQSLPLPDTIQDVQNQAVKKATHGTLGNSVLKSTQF

[2] = Intrinsic clearance in rat liver microsomes; format: ADME; conditions: read-out: CLH
[3] = Half life in rat liver microsomes; format: ADME
[4] = Intrinsic clearance in monkey liver microsomes; format: ADME, Macaca mulatta; conditions: rhesus monkey, read-out: CLH
[5] = Half life in monkey liver microsomes; format: ADME, Macaca mulatta; conditions: rhesus monkey
[6] = Intrinsic clearance in human liver microsomes; format: ADME; conditions: read-out: CLH
[7] = Half life in human liver microsomes; format: ADME
[8] = Plasma protein binding in human; format: ADME, cell-free; conditions: read-out: PPB (converted)
[9] = Tmax in Sprague-Dawley rat at 3 mg/kg, po by LC-MS/MS analysis; format: ADME, organism-based; conditions: in vivo
[10] = Cmax in Sprague-Dawley rat at 3 mg/kg, po by LC-MS/MS analysis; format: ADME, organism-based; set-up: dose 3 mg/kg, route oral; conditions: in vivo
[11] = AUC (0 to t) in Sprague-Dawley rat at 3 mg/kg, po by LC-MS/MS analysis; format: ADME, organism-based; conditions: in vivo
[12] = Mean residence time in Sprague-Dawley rat at 3 mg/kg, po by LC-MS/MS analysis; format: ADME, organism-based; conditions: in vivo
[13] = Half life in Sprague-Dawley rat at 3 mg/kg, po by LC-MS/MS analysis; format: ADME, organism-based; conditions: in vivo
[14] = Clearance in Sprague-Dawley rat at 3 mg/kg, po by LC-MS/MS analysis; format: ADME, organism-based; conditions: in vivo
[15] = Apparent volume of distribution in Sprague-Dawley rat at 3 mg/kg, po by LC-MS/MS analysis; format: ADME, organism-based; conditions: in vivo, read-out: Vz/F
[16] = tested on: Rattus norvegicus; experiment: Apparent volume of distribution in Sprague-Dawley rat at 3 mg/kg, iv by LC-MS/MS analysis; format: ADME, organism-based; conditions: in vivo
[17] = Tmax in beagle dog at 5 mg/kg, po by LC-MS/MS analysis; format: ADME, organism-based, Canis lupus familiaris; conditions: in vivo
[18] = Cmax in beagle dog at 5 mg/kg, po by LC-MS/MS analysis; format: ADME, organism-based, Canis lupus familiaris; set-up: dose 5 mg/kg, route oral; conditions: in vivo
[19] = tested on: Canis familiaris; experiment: AUC (0 to t) in beagle dog at 5 mg/kg, po by LC-MS/MS analysis; format: ADME, organism-based, Canis lupus familiaris; conditions: in vivo
[20] = Mean residence time in beagle dog at 5 mg/kg, po by LC-MS/MS analysis; format: ADME, organism-based, Canis lupus familiaris; conditions: in vivo
[21] = tested on: Canis familiaris; experiment: Apparent volume of distribution in beagle dog at 5 mg/kg, po by LC-MS/MS analysis; format: ADME, organism-based, Canis lupus familiaris; conditions: in vivo
[22] = Bioavailability in Sprague-Dawley rat at 3 mg/kg, iv by LC-MS/MS analysis; format: ADME, organism-based; conditions: in vivo
[23] = Cmax in beagle dog at 1 mg/kg, iv by LC-MS/MS analysis; format: ADME, organism-based, Canis lupus familiaris; set-up: dose 1 mg/kg, route intravenous; conditions: in vivo
[24] = tested on: Canis familiaris; experiment: AUC (0 to t) in beagle dog at 1 mg/kg, iv by LC-MS/MS analysis; format: ADME, organism-based, Canis lupus familiaris; conditions: in vivo
[25] = Mean residence time in beagle dog at 1 mg/kg, iv by LC-MS/MS analysis; format: ADME, organism-based, Canis lupus familiaris; conditions: in vivo
[26] = tested on: Canis familiaris; experiment: Half life in beagle dog at 1 mg/kg, iv by LC-MS/MS analysis; format: ADME, organism-based, Canis lupus familiaris; conditions: in vivo
[27] = tested on: Canis familiaris; experiment: Apparent volume of distribution in beagle dog at 1 mg/kg, iv by LC-MS/MS analysis; format: ADME, organism-based, Canis lupus familiaris; conditions: in vivo
[28] = Bioavailability in beagle dog at 1 mg/kg, iv by LC-MS/MS analysis; format: ADME, organism-based, Canis lupus familiaris; conditions: in vivo
[29] = Half life in Sprague-Dawley rat at 3 mg/kg, iv by LC-MS/MS analysis; format: ADME, organism-based; conditions: in vivo
[30] = Tmax in cynomolgus monkey at 10 mg/kg, po by LC-MS/MS analysis; format: ADME, organism-based, Macaca fascicularis; conditions: in vivo
[31] = Cmax in cynomolgus monkey at 10 mg/kg, po by LC-MS/MS analysis; format: ADME, organism-based, Macaca fascicularis; set-up: dose 10 mg/kg, route oral; conditions: in vivo
[32] = AUC (0 to t) in cynomolgus monkey at 10 mg/kg, po by LC-MS/MS analysis; format: ADME, organism-based, Macaca fascicularis; conditions: in vivo
[33] = Mean residence time in cynomolgus monkey at 10 mg/kg, po by LC-MS/MS analysis; format: ADME, organism-based, Macaca fascicularis; conditions: in vivo
[34] = Half life in cynomolgus monkey at 10 mg/kg, po by LC-MS/MS analysis; format: ADME, organism-based, Macaca fascicularis; conditions: in vivo
[35] = Clearance in cynomolgus monkey at 10 mg/kg, po by LC-MS/MS analysis; format: ADME, organism-based, Macaca fascicularis; conditions: in vivo
[36] = Apparent volume of distribution in cynomolgus monkey at 10 mg/kg, po by LC-MS/MS analysis; format: ADME, organism-based, Macaca fascicularis; conditions: in vivo, read-out: Vz/F
[37] = tested on: Canis familiaris; experiment: Half life in beagle dog at 5 mg/kg, po by LC-MS/MS analysis; format: ADME, organism-based, Canis lupus familiaris; conditions: in vivo
[38] = tested on: Rattus norvegicus; experiment: Toxicity in Sprague-Dawley rat assessed as no adverse effect at 100 mg/kg once daily for 1 week; format: organism-based; conditions: in vivo, 168 h
[39] = Toxicity in Sprague-Dawley rat administered once daily for 1 week; format: organism-based; conditions: in vivo
[40] = tested on: Cynomolgus monkey; experiment: Decrease in uric acid level in cynomolgus monkey serum administered as single oral dose measured after 24 hrs; format: functional, organism-based; conditions: Macaca fascicularis
[41] = Cmax in Sprague-Dawley rat at 3 mg/kg, iv by LC-MS/MS analysis; format: ADME, organism-based; set-up: dose 3 mg/kg, route intravenous; conditions: in vivo
[42] = AUC (0 to t) in Sprague-Dawley rat at 3 mg/kg, iv by LC-MS/MS analysis; format: ADME, organism-based; conditions: in vivo
[43] = Mean residence time in Sprague-Dawley rat at 3 mg/kg, iv by LC-MS/MS analysis; format: ADME, organism-based; conditions: in vivo
[44] = Clearance in Sprague-Dawley rat at 3 mg/kg, iv by LC-MS/MS analysis; format: ADME, organism-based; conditions: in vivo

- IC50 [1]: 1190 nM
Compound: O=C(O)C1(Sc2ccnc3ccc(-c4cccc(F)c4)cc23)CCC1

- IC50 [1]: > 10000 nM
Compound: CNC(=O)COc1ccc2nccc(SC3(C(=O)O)CCC3)c2c1

- IC50 [1]: 448 nM
- microsomal CLint [2]: 2.1 µL/min/mg
- half-life [3]: 6.88 h
- microsomal CLint [4]: 3 µL/min/mg
- half-life [5]: 4.82 h
- microsomal CLint [6]: 7.2 µL/min/mg
- half-life [7]: 2.02 h
- fraction unbound [8]: 0.002
- Tmax [9]: 0.5 h
- Cmax [10]: 8800 ng/mL
- AUC(0-t) [11]: 20700 ng·h/mL
- MRT [12]: 3.2 h
- half-life [13]: 2.8 h
- CL/F [14]: 2.5 mL/min/kg
- Vd/F [15]: 0.69 L/kg
Compound: O=C(O)C1(Sc2ccnc3ccccc23)CCC1

Compound: O=C(O)C1(Sc2ccnc3ccc(Br)cc23)CCC1 [SHR-4640]
- Vz/F [16]: 0.12 L/kg
- Tmax [17]: 0.5 h
- Cmax [18]: 7700 ng/mL
- AUCt [19]: 18600 ng·h/mL
- MRT [20]: 5 h
- Vz/F [21]: 2.1 L/kg
- bioavailability [22]: 74.8%
- Cmax [23]: 4700 ng/mL
- AUCt [24]: 4400 ng·h/mL
- MRT [25]: 3.2 h
- t1/2 [26]: 4.7 h
- Vz/F [27]: 1.6 L/kg
- bioavailability [28]: 86.1%
- half-life [29]: 4.9 h
- Tmax [30]: 0.5 h
- Cmax [31]: 46900 ng/mL
- AUC(0-t) [32]: 132000 ng·h/mL
- MRT [33]: 6.3 h
- half-life [34]: 7.3 h
- CL/F [35]: 1.3 mL/min/kg
- Vd/F [36]: 0.8 L/kg
- t1/2 [37]: 5.2 h
- Activity [38]: Non-toxic
- MTD at 168 h [39]: 300 mg/kg
- inhibition [40]: Dose-dependent effect
- IC50 [1]: 33.7 nM
- microsomal CLint [2]: 4.4 µL/min/mg
- half-life [3]: 3.28 h
- microsomal CLint [4]: 2.6 µL/min/mg
- half-life [5]: 5.8 h
- microsomal CLint [6]: 1.1 µL/min/mg
- half-life [7]: 13.6 h
- fraction unbound [8]: 0.013
- Tmax [9]: 1.2 h
- Cmax [10]: 20500 ng/mL
- AUC(0-t) [11]: 146000 ng·h/mL
- MRT [12]: 6.8 h
- half-life [13]: 4.4 h
- CL/F [14]: 0.39 mL/min/kg
- Vd/F [15]: 0.14 L/kg
- Cmax [41]: 99700 ng/mL
- AUC(0-t) [42]: 193000 ng·h/mL
- MRT [43]: 6 h
- clearance [44]: 0.29 mL/min/kg

- IC50 [1]: 1260 nM
Compound: O=C(O)C1(Sc2ccnc3ccc(CO)cc23)CCC1

- IC50 [1]: > 10000 nM
Compound: O=C(O)C1(Sc2ccnc3ccc(O)cc23)CCC1

- microsomal CLint [2]: 4.7 µL/min/mg
- half-life [3]: 3.08 h
- microsomal CLint [4]: 4.9 µL/min/mg
- half-life [5]: 3.15 h
- microsomal CLint [6]: 3.3 µL/min/mg
- half-life [7]: 4.62 h
- fraction unbound [8]: 0.001
- Tmax [9]: 1 h
- Cmax [10]: 2700 ng/mL
- AUC(0-t) [11]: 38200 ng·h/mL
- half-life [13]: 8.8 h
- CL/F [14]: 2 mL/min/kg
- Vd/F [15]: 1.2 L/kg
Compound: O=C(O)C1(Sc2ccnc3ccc(C(F)(F)F)cc23)CCC1

- IC50 [1]: 1750 nM
Compound: O=C(O)C1(Sc2ccnc3ccc(-c4ccc(C(F)(F)F)cc4)cc23)CCC1

- IC50 [1]: > 10000 nM
Compound: O=C(O)C1(Sc2ncnc3ccccc23)CCC1

- IC50 [1]: 1890 nM
Compound: O=C(O)C1(Sc2ccnc3ccc(OCCO)cc23)CCC1

- IC50 [1]: 352 nM
Compound: O=C(O)C1(Sc2ccnc3ccc(Br)cc23)CC1

- IC50 [1]: > 10000 nM
Compound: O=C(O)C1(Sc2nccc3ncccc23)CCC1

- IC50 [1]: 1790 nM
Compound: Nc1ccc2nccc(SC3(C(=O)O)CCC3)c2c1

- IC50 [1]: > 10000 nM
Compound: O=C(Nc1ccc2nccc(SC3(C(=O)O)CCC3)c2c1)C1CC1

- IC50 [1]: 2760 nM
Compound: N#CCCc1ccc2nccc(SC3(C(=O)O)CCC3)c2c1

- IC50 [1]: > 10000 nM
Compound: O=C(O)C1(Sc2ccnc3cccnc23)CCC1

- IC50 [1]: 324 nM
Compound: O=C(O)C1(Sc2ccnc3ccc(Br)cc23)CCCC1

- IC50 [1]: > 10000 nM
Compound: O=C1COc2cccc(SC3(C(=O)O)CCC3)c2N1

- IC50 [1]: > 10000 nM
Compound: CC(=O)Nc1ccc2nccc(SC3(C(=O)O)CCC3)c2c1

- IC50 [1]: > 10000 nM
Compound: O=C(O)C1(Oc2ncnc3ccccc23)CCC1

- IC50 [1]: 333 nM
Compound: O=C(O)C1(Sc2ccnc3ccc(-c4ccccc4F)cc23)CCC1

- IC50 [1]: 1930 nM
Compound: O=C(O)C1(Sc2ccnc3ccncc23)CCC1
